Experimental data as given in patent US8343925B2, “Composition for improving brain function and method for improving brain function” (Calpis Co., Ltd., priority 2009, dated 2013).

Assays:
[1] = test system: scopolamine-induced amnesia; experiment: Y-shaped maze test of spontaneous alternation behavior, scopolamine-induced amnesia; format: in vivo; details: male ddY mice, scopolamine 1 mg/kg s.c. 30 min before test
Procedure: Male mice (n=15) of the ddY strain (approximately 7-week old) were used, and they took food and water ad lib. Test substances used were 9.0 mg/kg weight of Ile-Pro-Pro. The test substances were administered to the mice once orally 60 minutes before the execution of a Y-shaped maze test for evaluation of spontaneous alternation behavior. Further, 30 minutes before the execution of the Y-shaped maze test, 1 mg/kg weight of scopolamine was subcutaneously administered on the backs of the mice in order to induce brain dysfunction (dysmnesia and/or cognitive impairment) in the mice. In the Y-shaped maze test, a Y-shaped maze was used as an experimental device, in which the length of each arm was 40 cm, the height of the wall was 12 cm, the width of the floor was 3 cm, and the width of the upper part was 10 cm, and three arms were connected to each other at an angle of 120 degrees. Each of the mice was placed at the tip of any one of the arms of the Y-shaped maze, and then let go to freely explore in the maze for 8 minutes. The sequence of the arms each of the mice entered was recorded. The number of entries by each of the mice for each of the arms during the measurement time was counted to be the total number of entries. […] The percentage of spontaneous alternation behavior was calculated by dividing the number of spontaneous alternation behavior by a number obtained by subtracting 2 from the total number of entries, and multiplying a resultant number by 100. […] The measured values were expressed in the form of mean±standard error for each group. A significant difference between the control group and the scopolamine control group was calculated using Student's t-test.
Male mice (n=15) of the ddY strain (approximately 7-week old) were used, and they took food and water ad lib. […] The arms each of the mice entered were sequentially recorded. The number of entries by each of the mice for each of the arms during the measurement time was counted to be the total number of entries. […]

[2] = molecular target: angiotensin-converting enzyme (ACE) (Homo sapiens, UniProt P12821); details: cited from earlier work
Chain of angiotensin-converting enzyme (ACE) (P12821 30-1306, species assumed): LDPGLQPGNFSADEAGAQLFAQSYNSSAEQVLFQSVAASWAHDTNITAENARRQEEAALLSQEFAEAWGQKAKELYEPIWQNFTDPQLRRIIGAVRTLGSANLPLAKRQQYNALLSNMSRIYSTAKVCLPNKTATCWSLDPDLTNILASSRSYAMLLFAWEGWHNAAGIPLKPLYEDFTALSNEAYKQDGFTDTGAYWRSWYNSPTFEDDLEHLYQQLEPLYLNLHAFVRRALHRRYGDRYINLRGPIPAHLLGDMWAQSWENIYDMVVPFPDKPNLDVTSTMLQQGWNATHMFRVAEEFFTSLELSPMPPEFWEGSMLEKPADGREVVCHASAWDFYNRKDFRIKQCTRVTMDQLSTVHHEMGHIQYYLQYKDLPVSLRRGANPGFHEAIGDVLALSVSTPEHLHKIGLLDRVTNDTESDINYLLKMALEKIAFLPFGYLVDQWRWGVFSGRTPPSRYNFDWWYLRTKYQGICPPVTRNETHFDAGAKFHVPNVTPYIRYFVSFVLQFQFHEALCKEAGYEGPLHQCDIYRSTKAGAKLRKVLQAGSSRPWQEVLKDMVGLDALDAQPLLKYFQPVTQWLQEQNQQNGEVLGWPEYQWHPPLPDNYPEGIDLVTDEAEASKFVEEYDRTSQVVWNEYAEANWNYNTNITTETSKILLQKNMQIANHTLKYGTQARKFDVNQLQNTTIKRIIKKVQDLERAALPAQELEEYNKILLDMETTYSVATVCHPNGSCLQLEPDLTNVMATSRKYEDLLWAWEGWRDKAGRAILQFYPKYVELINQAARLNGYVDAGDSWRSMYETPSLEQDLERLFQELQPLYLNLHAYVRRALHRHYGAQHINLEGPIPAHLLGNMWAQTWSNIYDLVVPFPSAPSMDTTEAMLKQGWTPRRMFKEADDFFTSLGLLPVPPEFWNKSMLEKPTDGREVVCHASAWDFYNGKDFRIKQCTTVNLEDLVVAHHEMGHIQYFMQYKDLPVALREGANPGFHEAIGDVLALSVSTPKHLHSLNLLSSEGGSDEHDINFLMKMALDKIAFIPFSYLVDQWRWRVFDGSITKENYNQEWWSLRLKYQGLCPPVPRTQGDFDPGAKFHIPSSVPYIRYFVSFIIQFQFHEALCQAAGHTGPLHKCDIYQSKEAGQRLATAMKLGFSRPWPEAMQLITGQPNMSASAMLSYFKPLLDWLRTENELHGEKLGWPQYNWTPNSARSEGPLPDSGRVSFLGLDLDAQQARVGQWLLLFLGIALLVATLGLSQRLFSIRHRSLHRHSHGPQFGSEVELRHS

blood pressure = details: oral administration; cited from earlier work
[3] = test system: increase in blood pressure due to cold stress; details: oral administration; cited from earlier work
[4] = 10 mg/kg weight once orally 60 min before test

Substance	prophylactic activity against amnesia (percentage of spontaneous alternation behavior) ([1]; 9.0 mg/kg weight once orally 60 min before test)	ACE inhibitory activity [2]	hypotensive activity (blood pressure)	inhibitory activities on increase in blood pressure due to cold stress or on decrease in markers of immune function [3]	prophylactic activity against amnesia (percentage of spontaneous alternation behavior) [1, 4]
Ile-Pro-Pro	had a prophylactic activity against amnesia	has an ACE inhibitory activity	hypotensive lowering activity	exhibit inhibitory activities on increase in blood pressure due to cold stress	
Leu-Pro-Pro					had a prophylactic activity against amnesia
Ser-Pro-Pro					had a prophylactic activity against amnesia
Val-Pro-Pro [Val-Pro-Pro (VPP), reference compound]				exhibit inhibitory activities on increase in blood pressure due to cold stress	
